The results in this text go back to patent publication US20050148647A1, “Hemodialysis solutions and uses thereof” (priority 2003, published 2005).

One data set can be described thus: in vivo. The conditions noted are these: dog, plasma.
Description: (§1) Supplementation with casein hydrolysate was evaluated in a dog dialysis model. Two dogs were dialyzed: a control animal underwent four hours of standard hemodialysis. The second animal was dialyzed with dialysate enriched with vitamin-free casein acid hydrolysate under otherwise identical conditions. The dogs were anesthetized and ventilated; venous access for dialysis was achieved via two peripheral venous lines, right femoral and left external jugular. A routine, bicarbonate-based dialysis solution, Centrisol™, was used with both animals and diluted with filtered water by the hemodialysis machine to the appropriate concentration. […] The animals were dialyzed for four hours with a blood flow rate of 300 ml/min and a dialysate flow rate of 500 ml/min. Plasma and dialysate samples were from both animals at t=0 and t=4 hours were analyzed for amino acid content. Additional samples were taken from the serum post-filter and from the dialysate immediately pre-filter.
Take `C[C@H](N)C(=O)O` [alanine]: the concentration at 0 h came out at 658 µM and the concentration at 4 h was determined as 712 µM.

Take `N=C(N)NCCC[C@H](N)C(=O)O` [arginine]: the concentration at 0 h worked out at 132 µM and the concentration at 4 h was 148 µM.

In the case of `N[C@@H](CC(=O)O)C(=O)O` [aspartate], the concentration at 0 h was determined as 2 µM and the concentration at 4 h was 12 µM.

As to `N[C@@H](CS)C(=O)O` [cysteine], the concentration at 0 h worked out at 8 µM and the concentration at 4 h stood at 12 µM.

Take `NCC(=O)O` [glycine]: the concentration at 0 h stood at 306 µM and the concentration at 4 h stood at 260 µM.

Take `N[C@@H](Cc1c[nH]cn1)C(=O)O` [histidine]: the concentration at 0 h was 68 µM and the concentration at 4 h turned out to be 88 µM.

Consider `CC[C@H](C)[C@H](N)C(=O)O` [isoleucine], for which the concentration at 0 h was determined as 46 µM and the concentration at 4 h is 138 µM.

On to `CC(C)C[C@H](N)C(=O)O` [leucine], for which the concentration at 0 h was determined as 126 µM and the concentration at 4 h is 290 µM.

For the compound `NCCCC[C@H](N)C(=O)O` [lysine], the concentration at 0 h was 98 µM and the concentration at 4 h amounted to 198 µM.

Consider `CSCC[C@H](N)C(=O)O` [methionine], for which the concentration at 0 h was 44 µM and the concentration at 4 h was determined as 86 µM.

On to `N[C@@H](Cc1ccccc1)C(=O)O` [phenylalanine], for which the concentration at 0 h worked out at 34 µM and the concentration at 4 h worked out at 82 µM.

`O=C(O)[C@@H]1CCCN1` [proline] yielded a concentration at 0 h of 336 µM and a concentration at 4 h of 428 µM.

On to `N[C@@H](CO)C(=O)O` [serine], for which the concentration at 0 h came out at 154 µM and the concentration at 4 h stood at 154 µM.

`C[C@@H](O)[C@H](N)C(=O)O` [threonine] gave a concentration at 0 h of 108 µM and a concentration at 4 h of 128 µM.

Regarding `N[C@@H](Cc1c[nH]c2ccccc12)C(=O)O` [tryptophan], the concentration at 0 h worked out at 52 µM and the concentration at 4 h amounted to 52 µM.

`N[C@@H](Cc1ccc(O)cc1)C(=O)O` [tyrosine] showed a concentration at 0 h of 28 µM and a concentration at 4 h of 48 µM.

`CC(C)[C@H](N)C(=O)O` [valine] had a concentration at 0 h of 118 µM and a concentration at 4 h of 242 µM.

A further data set can be described thus: dog dialysis model: hemodialysis with casein hydrolysate-enriched dialysate, plasma amino acid content.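 Note: anesthetized dogs on 4 h hemodialysis with bicarbonate dialysate, one enriched with vitamin-free casein acid hydrolysate, control animal on standard dialysis, plasma amino acids measured at 0 and 4 h.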 The conditions noted are these: casein group, over the course of dialysis.
Description: as §1
`NCC(=O)O` [glycine]: the “direction of change of plasma concentration of the amino acid (in words)” value is given as “decreased”.

For the compound `N[C@@H](CO)C(=O)O` [serine], the “direction of change of plasma concentration of the amino acid (in words)” value was “remained the same concentration”.
